The target in one assay is Tubulin (Bos taurus) (UniProt Q6B856+Q862L2+Q862F3). Kind of assay: Displacement of [3H]colchicine from bovine brain tubulin at 5 uM incubated for 10 mins. Type of assay: tissue-based. A general note: Loss of bound radioactivity is the signal in a displacement assay; it reports binding, not function.
A short description of assay [1]: Induction of microtubule depolymerization in rat A10 cells incubated for 18 hrs by indirect immunofluorescence analysis. Type of assay: cell-based.
Assay [2] has as its system HeLa. Kind of assay: Antiproliferative activity against wild type human HeLa cells assessed as inhibition of cell growth by SRB assay. Format: functional, cell-based.
Assay [3] in a line: Selectivity ratio of EC50 for induction of microtubule depolymerization in rat A10 cells to IC50 for antiproliferative activity against human MDA-MB-435 cells.
Assay [4] deals with SK-OV-3. The assay is described as follows: Antiproliferative activity against wild type human SK-OV-3 cells assessed as inhibition of cell growth by SRB assay. Format: functional, cell-based. On the technique in general: In SRB staining, fixed cells bind dye roughly in proportion to their protein.
Assay [5] relates to SK-OV-3. Kind of assay: Antiproliferative activity against human SK-OV-3 cells overexpressing MDR-1-M6/6 assessed as inhibition of cell growth by SRB assay. Type of assay: functional, cell-based.
The subject of assay [6] is MDA-MB-435. Kind of assay: Antiproliferative activity against human MDA-MB-435 cells assessed as inhibition of cell growth by SRB assay. Format: functional, cell-based.
For assay [7], the system named is HeLa. Kind of assay: Antiproliferative activity against human HeLa cells overexpressing betaIII-tubulin assessed as inhibition of cell growth by SRB assay. Type of assay: functional, cell-based.
Assay [8] deals with MDA-MB-435. The assay is described as follows: Antitumor activity against human MDA-MB-435 cells xenografted in nude mouse at 50 mg/kg, ip administered 3 times a week for 2 weeks and measured on day 14. Format: functional, organism-based. The conditions noted are these: time 14.0 day. (In general: In xenograft studies the graft and the host belong to different species.)
In assay [9] the test system is MDA-MB-435. The assay is described as follows: Antitumor activity against human MDA-MB-435 cells xenografted in nude mouse assessed as reduction in tumor volume at 50 mg/kg, ip administered 3 times a week for 2 weeks and measured on day 14. To be noted: time 14.0 day. Format: functional, organism-based.
The next assay addresses Tubulin (Bos taurus, UniProt Q6B856+Q862L2+Q862F3). The assay is described as follows: Inhibition of bovine brain tubulin assembly. Format: tissue-based.
The test system of assay [10] is MDA-MB-435. The assay is described as follows: Antitumor activity against human MDA-MB-435 cells xenografted in nude mouse at 15 mg/kg, ip administered 3 times a week for 2 weeks and measured on day 14. Type of assay: functional, organism-based. To be noted: time 14.0 day.
Assay [11] has as its system MDA-MB-435. The assay is described as follows: Antitumor activity against human MDA-MB-435 cells xenografted in nude mouse assessed as reduction in tumor volume at 15 mg/kg, ip administered 3 times a week for 2 weeks and measured on day 14. Format: functional, organism-based. The conditions noted are these: time 14.0 day.

21 compounds from ChEMBL document CHEMBL5260860, “Simple monocyclic pyrimidine analogs as microtubule targeting agents binding to the colchicine site” (Bioorg Med Chem, 2023) can be followed below.

SMILES strings stand for the structures. Active and inactive are the calls of the source. No cut-off for these calls is given here.

Broadly, the inhibition is the drop in the measured response relative to a control, in per cent. A lower inhibition goes with a response near the control. For orientation: EC50 means the concentration needed to bring the measured effect to its halfway point. The low end stands for an effect from little substance, the high end for a need for much substance. One may read the IC50 as the midpoint of a concentration-inhibition curve. In the case of `COc1ccc2c(c1)CCCN2c1nc(C)nc(N)c1Cl`, on Tubulin (Bos taurus), the inhibition stood at 61%. This compound yielded an EC50 in assay [1] of 1400 nM. Further, the concentration for half-maximal inhibition (IC50) came to 312 nM with HeLa [2]; 459 nM in the assay with SK-OV-3 [4]; 576 nM with SK-OV-3 [5]; 220 nM in the assay on MDA-MB-435 [6]; 279 nM in the assay with HeLa [7]. Besides, the Selectivity ratio in assay [3] is 6.5.
Compound `COc1ccc(Nc2nc(C)nc(N)c2Cl)cc1` gave an EC50 in assay [1] of over 10000 nM.
On to `CCCNc1nc(C)nc(N(C)c2ccc(OC)cc2)c1Cl`, for which, at Tubulin (Bos taurus), the inhibition worked out at 82%. The compound also had an EC50 in assay [1] of 123 nM. For the same compound, the outcome in the assay with MDA-MB-435 [8] was inactive. The IC50 in the assay on HeLa [2] came out at 27.9 nM; with SK-OV-3 [4], 34.2 nM; with SK-OV-3 [5] it was 39.2 nM; with MDA-MB-435 [6], 24.4 nM; in the assay on HeLa [7], 33.8 nM. Moreover, in [3], the Selectivity ratio is on record as 5. In addition, in the assay with MDA-MB-435 [9], the outcome was Active.
At Tubulin (Bos taurus), `CCCNc1nc(C)nc(N(C)c2ccc3c(OC)cccc3c2)c1Cl` returned an inhibition of 61%. Further, in assay [1], the EC50 is 260 nM. For the same compound, the IC50 with HeLa [2] came to 368 nM; in the assay on SK-OV-3 [4], 227 nM; in the assay with SK-OV-3 [5] it was 362 nM; in the assay on MDA-MB-435 [6], 221 nM; with HeLa [7], 234 nM. Further, the Selectivity ratio in [3] came to 1.2.
`COc1ccc(N(C)c2nc(C)nc(NCc3ccccc3)c2Cl)cc1` yielded an inhibition at Tubulin (Bos taurus) of 14%. For the same compound, the EC50 in assay [1] was over 10000 nM.
In turn, `COc1ccc(N(C)c2nc(C)nc(NC(C)C)c2Cl)cc1` returned an EC50 in assay [1] of 7400 nM. For the same compound, the IC50 with HeLa [2] worked out at 800 nM; with SK-OV-3 [4], 1400 nM; with SK-OV-3 [5] it was 1600 nM; in the assay on MDA-MB-435 [6], 685 nM; in the assay with HeLa [7], 1000 nM. In addition, the Selectivity ratio in assay [3] worked out at 11.
At Tubulin (Bos taurus), `COc1ccc(N(C)c2nc(C)nc3[nH]ccc23)cc1` came in with an inhibition of 70%. Moreover, the EC50 in assay [1] came to 5800 nM. The IC50 against Tubulin is 2600 nM. Also, the Selectivity ratio in assay [3] is on record as 32.
On Tubulin (Bos taurus), `CNc1nc(C)nc(N(C)c2ccc(OC)cc2)c1Cl` yielded an inhibition of 68%. Also, the response in assay [1] was half-maximal at 2100 nM (EC50). The IC50 came to 87.6 nM in the assay on HeLa [2]; 118 nM in the assay with SK-OV-3 [4]; 169 nM in the assay with SK-OV-3 [5]; 103 nM in the assay on MDA-MB-435 [6]; 107 nM in the assay on HeLa [7]. Also, the Selectivity ratio in [3] was 20.
Consider `COc1ccc2c(c1)CCCN2c1nc(C)nc(NC(=O)C(C)(C)C)c1Cl`, for which the EC50 in assay [1] was over 10000 nM. Moreover, the IC50 is 2600 nM with HeLa [2], 3300 nM in the assay on SK-OV-3 [4], 2100 nM in the assay with MDA-MB-435 [6] and 2600 nM with HeLa [7].
Consider `CSc1ccc(N(C)c2nc(C)nc(N)c2Cl)cc1`, for which, at Tubulin (Bos taurus), the inhibition amounted to 71%. The compound also registered a concentration giving a half-maximal response (EC50) in assay [1] of 3300 nM. The IC50 came out at 158 nM in the assay with HeLa [2], 277 nM in the assay on SK-OV-3 [4], 140 nM with MDA-MB-435 [6] and 163 nM with HeLa [7].
For `COc1ccc(N(C)c2nc(C)nc(NC(C)=O)c2Cl)cc1`, in assay [1], the concentration giving a half-maximal response (EC50) was over 15000 nM. Further, in the assay with MDA-MB-435 [6], the half-inhibitory concentration (IC50) was 3700 nM.
Turning to `COc1cccc(N(C)c2nc(C)nc(N)c2Cl)c1`, the EC50 in assay [1] is over 10000 nM.
Compound `COc1ccc(N(C)c2nc(C)nc(N)c2C)cc1` came in with an inhibition on Tubulin (Bos taurus) of 45%. In [1], this compound returned an EC50 of over 8000 nM. For the same compound, the IC50 is 229 nM in the assay with HeLa [2]; 312 nM with SK-OV-3 [4]; over 500 nM in the assay on SK-OV-3 [5]; 206 nM in the assay with MDA-MB-435 [6]; 250 nM with HeLa [7]. The Selectivity ratio in [3] was over 39.
Compound `Cc1nc(N)c(Cl)c(N(C)c2ccc3c(c2)CCO3)n1` displayed an inhibition on Tubulin (Bos taurus) of 60%. Further, the EC50 in assay [1] was 9200 nM. The IC50 with HeLa [2] is 490 nM; in the assay with SK-OV-3 [4], 742 nM; in the assay with SK-OV-3 [5], 1050 nM; with MDA-MB-435 [6], 620 nM; in the assay on HeLa [7], 415 nM. In addition, in assay [3], the Selectivity ratio was determined as 15.
On to `COc1ccc(N(C)c2nc(C)nc(NCC(C)C)c2Cl)cc1`, for which, at Tubulin (Bos taurus), the inhibition is 57%. The compound further showed an EC50 in [1] of 394 nM. For the same compound, the IC50 in the assay with HeLa [2] is 96.7 nM; in the assay with SK-OV-3 [4] it was 107 nM; with SK-OV-3 [5], 117 nM; in the assay with MDA-MB-435 [6], 78.1 nM; with HeLa [7], 104 nM. In assay [3], the Selectivity ratio turned out to be 5.
At Tubulin (Bos taurus), `COc1cccc2cc(N(C)c3nc(C)nc(N)c3Cl)ccc12` had an inhibition of 74%. In assay [1], a half-maximal effect (EC50) was put at 831 nM. Further, the IC50 in the assay with HeLa [2] is 67.1 nM; in the assay on SK-OV-3 [4] it was 64.7 nM; in the assay with SK-OV-3 [5], 193 nM; in the assay with MDA-MB-435 [6] it was 56.1 nM; with HeLa [7], 70.2 nM. In addition, the Selectivity ratio in assay [3] is listed as 15.
`COc1ccc(/C=C\c2cc(OC)c(OC)c(OC)c2)cc1O` [COMBRETASTATIN A4] came in with an EC50 in assay [1] of 9.8 nM.
As to `CC(=O)O[C@H]1C(=O)[C@@]2(C)[C@H]([C@H](OC(=O)c3ccccc3)[C@]3(O)C[C@H](OC(=O)[C@H](O)[C@@H](NC(=O)c4ccccc4)c4ccccc4)C(C)=C1C3(C)C)[C@]1(OC(C)=O)CO[C@@H]1C[C@@H]2O` [PACLITAXEL], in the assay on MDA-MB-435 [10], the outcome was inactive. Besides, the outcome in the assay on MDA-MB-435 [11] was Active. For the same compound, the IC50 in the assay with SK-OV-3 [4] amounted to 5 nM.
At Tubulin (Bos taurus), `CCNc1nc(C)nc(N(C)c2ccc(OC)cc2)c1Cl` displayed an inhibition of 74%. The compound also had an EC50 in [1] of 305 nM. Moreover, the IC50 in the assay on HeLa [2] came out at 41.8 nM; in the assay with SK-OV-3 [4], 77.9 nM; in the assay on SK-OV-3 [5], 93.5 nM; with MDA-MB-435 [6], 50.4 nM; in the assay on HeLa [7], 61.7 nM. In assay [3], the Selectivity ratio is 6.
For `COc1ccc(N(C)c2nc(C)nc(N)c2Cl)cc1`, the inhibition at Tubulin (Bos taurus) was 76%. This compound came in with an EC50 in assay [1] of 1500 nM. Also, the IC50 turned out to be 86.3 nM with HeLa [2]; 133 nM in the assay on SK-OV-3 [4]; 180 nM in the assay with SK-OV-3 [5]; 71.3 nM in the assay with MDA-MB-435 [6]; 112 nM in the assay on HeLa [7]. The Selectivity ratio in assay [3] amounted to 21.
In turn, `CCCCNc1nc(C)nc(N(C)c2ccc(OC)cc2)c1Cl` yielded an inhibition on Tubulin (Bos taurus) of 84%. Besides, in assay [1], a half-maximal response (EC50) required 432 nM. Moreover, the IC50 was 66.2 nM in the assay on HeLa [2]; 122 nM in the assay with SK-OV-3 [4]; 165 nM with SK-OV-3 [5]; 84.4 nM in the assay with MDA-MB-435 [6]; 105 nM in the assay with HeLa [7]. For the same compound, the Selectivity ratio in [3] was 5.
